Assay results published in patent US9034882B2, “Inhibitors of human immunodeficiency virus replication” (priority 2012, dated 2015).
pEC50: −log10 of the molar value. Like-named read-outs stand apart in the source and are kept apart here.

Test system: recombinant NL-Rluc virus
Assay: Inhibition of HIV replication (NL-RLuc luciferase reporter virus in MT-2 cells)
Assay type: cell-based
Settings: Human immunodeficiency virus 1, MT2, 120 h; for pEC50: read-out: Activity; for EC50: read-out: EC50 μM

Cc1nc2c(-c3cccc(Cl)c3)cnn2c(N2CCC(C)(C)CC2)c1C(OC(C)(C)C)C(=O)O (centres unmarked) [Example 36, 2-(tert-butoxy)-2-(3-(3-chlorophenyl)-7-(4,4-dimethylpiperidin-1-yl)-5-pyrazolo[1,5a]pyrimidin-6-yl)acetic acid]
pEC50: 6.00 to 7.00

Cc1nc2cc(-c3cccc(-c4ccc(F)cc4)c3)nn2c(N2CCC3(CC2)CC3)c1[C@H](OC(C)(C)C)C(=O)O [Example 54, (S)-2-(tert-Butoxy)-2-(2-(4′-fluoro-[1,1′-biphenyl]-3-yl)-5-methyl-7-(6-azaspiro[2.5]octan-6-yl)pyrazolo[1,5-a]pyrimidin-6-yl)acetic acid]
pEC50: 6.00 to 7.00

Cc1nc2nc(-c3ccccc3)nn2c(N2CCC(C)CC2)c1C(OC(C)(C)C)C(=O)O (centres unmarked) [Example 38, 2-tert-Butoxy-2-(5-methyl-7-(4-methylpiperidin-1-yl)-2-phenyl-[1,2,4]triazolo[1,5-a]pyrimidin-6-yl)acetic acid]
pEC50: < 6.00

Cc1nc2cc(-c3ccccc3)nn2c(N2CCCC2C(C)C)c1C(OC(C)(C)C)C(=O)O (centres unmarked) [Example 25]
pEC50: < 6.00

Cc1nc2cc(-c3cccc(-c4ccccc4)c3)nn2c(N2C3CCCC2COC3)c1[C@H](OC(C)(C)C)C(=O)O [Example 48, (2S)-2-(2-([1,1′-Biphenyl]-3-yl)-7-(3-oxa-9-azabicyclo[3.3.1]nonan-9-yl)-5-methylpyrazolo[1,5-a]pyrimidin-6-yl)-2-(tert-butoxy)acetic acid]
pEC50: < 6.00

Cc1nc2cc(-c3ccccc3)nn2c(N2CCC(F)CC2)c1C(OC(C)(C)C)C(=O)O (centres unmarked) [Example 12]
pEC50: < 6.00

Cc1nc2cc(-c3ccccc3)nn2c(N2CCCNCC2)c1C(OC(C)(C)C)C(=O)O (centres unmarked) [Example 4, 2(7-(1,4-diazepan-1-yl)-5-methyl-2-phenylpyrazolo[1,5a]pyrimidin-6-yl)-2-(tert-butoxy)-acetic acid]
pEC50: < 6.00

Cc1nc2cc(-c3ccccc3)nn2c(N2CCC(C(F)(F)F)CC2)c1C(OC(C)(C)C)C(=O)O (centres unmarked) [Example 23]
pEC50: < 6.00

Cc1nc2cc(-c3cccc(-c4ccccc4)c3)nn2c(N2C3CCC2CN(C)C3)c1[C@H](OC(C)(C)C)C(=O)O [Example 50, (S)-2-(2-([1,1′-Biphenyl]-3-yl)-5-methyl-7-((1R,5S)-3-methyl-3,8-diazabicyclo[3.2.4]octan-8-yl)pyrazolo[1,5-a]pyrimidin-6-yl)-2-(tert-butoxy)acetic acid]
pEC50: < 6.00 | EC50: 3.23 µM

Cc1nc2cc(-c3ccccc3)nn2c(N2CCN(C)CC2)c1C(OC(C)(C)C)C(=O)O (centres unmarked) [Example 7, 2-(tert-butoxy)-2-(5-methyl-7(4-methylpiperazin-1-yl)-2-phenylpyrazolo[1,5a]pyrimidin-6-yl)acetic acid]
pEC50: < 6.00 | EC50: 5.2 µM

Cc1nc2cc(-c3cccc(-c4ccccc4)c3)nn2c(N2CCC(C)(C)CC2)c1C(OC(C)(C)C)C(=O)O (centres unmarked) [Example 35, 2-(2-([1,1′-Biphenyl]-3-yl)-7-(4,4-dimethylpiperidin-1-yl)-5-methylpyrazolo[1,5-a]pyrimidin-6-yl)-2-(tert-butoxy)acetic acid]
pEC50: 6.00 to 7.00 | EC50: 0.13 µM

Cc1nc2cc(-c3ccccc3)nn2c(N2CCCC(F)C2)c1C(OC(C)(C)C)C(=O)O (centres unmarked) [Example 18]
pEC50: < 6.00

Cc1nc2cc(-c3ccccc3)nn2c(N2CCCCC2)c1C(OC(C)(C)C)C(=O)O (centres unmarked) [Example 2, 2-(tert-butoxy)-2-(7-(lpiperidin-1-yl)-5-methyl-2-phenylpyrazolo[1,5a]pyrimidin-6-yl)acetic acid]
pEC50: < 6.00 | EC50: 5 µM

Cc1nc2cc(-c3cccc(-c4ccccc4)c3)nn2c(N2CCC3(C)CC3C2)c1[C@H](OC(C)(C)C)C(=O)O (stereo partly drawn) [Example 61, (2S)-2-(2-([1,1′-Biphenyl]-3-yl)-5-methyl-7-(6-methyl-3-azabicyclo[4.1.0]heptan-3-yl)pyrazolo[1,5-a]pyrimidin-6-yl)-2-(tert-butoxy)acetic acid]
pEC50: 6.00 to 7.00

Cc1nc2cc(-c3cccc(OCc4ccccc4)n3)nn2c(N2CCC(C)(C)CC2)c1[C@H](OC(C)(C)C)C(=O)O [Example 69, (S)-2-(2-(6-(Benzyloxy)pyridin-2-yl)-7-(4,4-dimethylpiperidin-1-yl)-5-methylpyrazolo[1,5-a]pyrimidin-6-yl)-2-(tert-butoxy)acetic acid]
pEC50: 6.00 to 7.00 | EC50: 0.19 µM

Cc1nc2cc(-c3cccc(Cc4ccccc4)n3)nn2c(N2CCC(C)(C)CC2)c1[C@H](OC(C)(C)C)C(=O)O [Example 70, (S)-2-(2-(6-Benzylpyridin-2-yl)-7-(4,4-dimethylpiperidin-1-yl)-5-methylpyrazolo[1,5-a]pyrimidin-6-yl)-2-(tert-butoxy)acetic acid]
pEC50: 6.00 to 7.00

Cc1nc2cc(-c3cccc(-c4cccc(F)c4)c3)nn2c(N2CCC(C)(C)CC2)c1[C@H](OC(C)(C)C)C(=O)O [Example 55, (S)-2-(tert-Butoxy)-2-(7-(4,4-dimethylpiperidin-1-yl)-2-(3′-fluoro-[1,1′-biphenyl]-3-yl)-5-methylpyrazolo[1,5-a]pyrimidin-6-yl)acetic acid]
pEC50: 6.00 to 7.00

Cc1nc2cc(-c3cccc(-c4ccccc4)c3)nn2c(N2CCOC(C)(C)C2)c1[C@H](OC(C)(C)C)C(=O)O [Example 49, (S)-2-(2-([1,1′-Biphenyl]-3-yl)-7-(2,2-dimethylmorpholino)-5-methylpyrazolo[1,5-a]pyrimidin-6-yl)-2-(tert-butoxy)acetic acid]
pEC50: 6.00 to 7.00

Cc1ccccc1-c1cccc(-c2cc3nc(C)c([C@H](OC(C)(C)C)C(=O)O)c(N4CCC(C)(C)CC4)n3n2)c1 [Example 58, (S)-2-(tert-Butoxy)-2-(7-(4,4-dimethylpiperidin-1-yl)-5-methyl-2-(2′-methyl-[1,1′-biphenyl]-3-yl)pyrazolo[1,5-a]pyrimidin-6-yl)acetic acid]
pEC50: > 7.00

Cc1nc2nc(-c3cccc(-c4ccccc4)c3)nn2c(N2CCC(C)(C)CC2)c1[C@H](OC(C)(C)C)C(=O)O [Example 42, (S)-2-(2-([1,1′-Biphenyl]-3-yl)-7-(4,4-dimethylpiperidin-1-yl)-5-methyl-[1,2,4]triazolo[1,5-a]pyrimidin-6-yl)-2-(tert-butoxy)acetic acid]
pEC50: > 7.00 | EC50: 0.05 µM

Cc1nc2cc(-c3ccccc3)nn2c(N2CCC(C(=O)O)CC2)c1C(OC(C)(C)C)C(=O)O (centres unmarked) [Example 13]
pEC50: < 6.00

Cc1nc2cc(-c3ccccc3)nn2c(N2CCC3(CCCC3)CC2)c1[C@H](OC(C)(C)C)C(=O)O [Example 27, (S)-2-(tert-butoxy)-2-(5-methyl-2-phenyl-7-(8-azaspiro[4.5]decan-8-yl)pyrazolo[1,5-a]pyrimidin-6-yl) acetic acid]
pEC50: < 6.00

Cc1nc2cc(-c3cccc(OCc4ccccc4)c3)nn2c(N2CCC(C)(C)CC2)c1C(OC(C)(C)C)C(=O)O (centres unmarked) [Example 32, 2-(2-(3-(benzyloxy)phenyl)-7-(4,4-dimethylpiperidin-1-yl)-5-methylpyrazolo[1,5-a]pyrimidin-6-yl)2-(tert-butoxy)acetic acid]
pEC50: > 7.00 | EC50: 0.06 µM

Cc1nc2cc(-c3ccccc3)nn2c(N2CCC(F)(F)CC2)c1C(OC(C)(C)C)C(=O)O (centres unmarked) [Example 21]
pEC50: < 6.00

Cc1nc2nc(-c3ccccc3)nn2c(N2CC[C@H]3CCCC[C@H]3C2)c1C(OC(C)(C)C)C(=O)O (stereo partly drawn) [Example 39, 2-(tert-Butoxy)-2-(5-methyl-7-((4aR,8aR)-octahydroisoquinolin-2(1H)-yl)-2-phenyl-[1,2,4]triazolo[1,5-a]pyrimidin-6-yl)acetic acid]
pEC50: 6.00 to 7.00
